{"source": "paper PMC11189555", "about": "“Aryl amino acetamides prevent Plasmodium falciparum ring development via targeting the lipid-transfer protein PfSTART1” (Nature Communications, 2024)", "tested_on": "PopD-D7 M-833 resistant clone (PfSTART1 N309K)", "experiment": "Growth inhibition assay (72 h, LDH activity)", "assay_type": "cell-based, Plasmodium falciparum", "details": "for inhibition at 0.0390625 µM / inhibition at 0.078125 µM / inhibition at 0.15625 µM / inhibition at 0.3125 µM / inhibition at 0.625 µM / inhibition at 1.25 µM / inhibition at 2.5 µM / inhibition at 5 µM / inhibition at 10 µM / EC50: Plasmodium falciparum; for (av-uRBC) / (DMSO-uRBC) x100: PopD-D7", "experimental": "The drug was then removed, and parasites were allowed to recover. Another cycle of drug treatment (3 μM M-833) was then resumed. The resistant lines were cloned out by limiting dilution (diluting the culture into a 96-well plate to achieve an average of ~0.3 parasites per well), prior to growth inhibition assays and genomic DNA (gDNA) extraction (DNeasy Blood and Tissue kit (Qiagen)[18].\nParasite growth assays with inhibitory compounds were performed as per[11] and are fully described in the Supplementary Information. […]\nGrowth inhibition assays. Synchronised ring-stage parasites (0.3-0.6% parasitemia, 2% haematocrit) were grown for 72 h in a serial-dilution of the compound under […]\nand compound 4. Note that M-833 was first purchased from MolPort (MolPort -002-267-916) then made in-house at WEHI: the differences observed in EC50s across experiments are attributed to the different batches of M -833. For some experiments, 0, 0.25 or 2.5 mM of glucosamine (GlcN) was also added. Experiments were set up in technical duplicates or triplicates. Following a freeze -thaw cycle, lactate dehydrogenase (LDH) activity was assessed as an indicator of parasite growt h 5. 30 μL of parasite culture was incubated for 30 min in the dark with 75 μL Malstat mixture (0.1 M Tris pH 9.0, 20 g/L lactic acid, pH 7.5, 0.2% Triton-X100, 0.5 g/L acetylpyridine adenine dinucleotide (APAD, Sigma), 200 μg/mL nitroblue tetrazolium (NBT; Sigma), 1 μg/mL phenozine ethosulfate (PES; Sigma)). Absorbance was then measured at 650 nm, transformed using the formula below, plotted against the logarithm of the concentrations, and a non-linear regression (log(inhibitor) vs. response, variable slope) was calculated using GraphPad Prism to assess the half-inhibitory […]\nGrowth inhibition % = (1 − average(sample)− average(uRBC)) ∗ 100 […]\nThe DMSO samples were also used to assess growth of parasite in the presence of 0.25 and 2.5 mM GlcN (normalised by DMSO in 0 mM GlcN). […]", "key": {"[1]": {"details": "M-833 10 uM, PopD-D7 replicate 1"}, "[2]": {"details": "M-833 10 uM, PopD-D7 replicate 3"}}, "note": "Where two headings read alike, the source gives them in different places."}
{"compound": "Cc1cc(Cl)c(S(=O)(=O)N2CCCC2)cc1OCC(=O)NC1CCCCC1", "note": "[M-833]", "values": [{"measurement": "Normalised to DMSO", "setting": "[1]", "result": 58.4224}, {"measurement": "Normalised to DMSO", "setting": "[2]", "result": 50.0329}, {"measurement": "inhibition at 0.0390625 µM", "setting": "M-833 0.0390625 uM, PopD-D7 replicate 1", "result": -2.73, "unit": "%"}, {"measurement": "inhibition at 0.0390625 µM", "setting": "M-833 0.0390625 uM, PopD-D7 replicate 3", "result": -0.987, "unit": "%"}, {"measurement": "inhibition at 0.078125 µM", "setting": "M-833 0.078125 uM, PopD-D7 replicate 1", "result": -2.83, "unit": "%"}, {"measurement": "inhibition at 0.078125 µM", "setting": "M-833 0.078125 uM, PopD-D7 replicate 3", "result": -1.48, "unit": "%"}, {"measurement": "inhibition at 0.15625 µM", "setting": "M-833 0.15625 uM, PopD-D7 replicate 1", "result": -3.68, "unit": "%"}, {"measurement": "inhibition at 0.15625 µM", "setting": "M-833 0.15625 uM, PopD-D7 replicate 3", "result": 0.0987, "unit": "%"}, {"measurement": "inhibition at 0.3125 µM", "setting": "M-833 0.3125 uM, PopD-D7 replicate 1", "result": -0.66, "unit": "%"}, {"measurement": "inhibition at 0.3125 µM", "setting": "M-833 0.3125 uM, PopD-D7 replicate 3", "result": -0.592, "unit": "%"}, {"measurement": "inhibition at 0.625 µM", "setting": "M-833 0.625 uM, PopD-D7 replicate 1", "result": 1.23, "unit": "%"}, {"measurement": "inhibition at 0.625 µM", "setting": "M-833 0.625 uM, PopD-D7 replicate 3", "result": 1.18, "unit": "%"}, {"measurement": "inhibition at 1.25 µM", "setting": "M-833 1.25 uM, PopD-D7 replicate 1", "result": 0.943, "unit": "%"}, {"measurement": "inhibition at 1.25 µM", "setting": "M-833 1.25 uM, PopD-D7 replicate 3", "result": 4.74, "unit": "%"}, {"measurement": "inhibition at 2.5 µM", "setting": "M-833 2.5 uM, PopD-D7 replicate 1", "result": 4.15, "unit": "%"}, {"measurement": "inhibition at 2.5 µM", "setting": "M-833 2.5 uM, PopD-D7 replicate 3", "result": 10.4, "unit": "%"}, {"measurement": "inhibition at 5 µM", "setting": "M-833 5 uM, PopD-D7 replicate 1", "result": 14.5, "unit": "%"}, {"measurement": "inhibition at 5 µM", "setting": "M-833 5 uM, PopD-D7 replicate 3", "result": 20.4, "unit": "%"}, {"measurement": "inhibition at 10 µM", "setting": "[1]", "result": 41.6, "unit": "%"}, {"measurement": "inhibition at 10 µM", "setting": "[2]", "result": 50, "unit": "%"}, {"measurement": "EC50", "setting": "read-out: EC50 (95% confidence interval)", "result": 9.95, "unit": "µM"}, {"measurement": "EC50", "setting": "Supplementary Table 1, PopD-D7 (N309K), 72 h, read-out: EC50", "result": 4.88, "unit": "µM"}, {"measurement": "(av-uRBC) / (DMSO-uRBC) x100", "setting": "conc. 3.04832 nM, Biological replicate 1 (2021-10-25)", "result": 106.031}, {"measurement": "(av-uRBC) / (DMSO-uRBC) x100", "setting": "conc. 3.04832 nM, Biological replicate 2 (2021-11-03)", "result": 107.379}, {"measurement": "(av-uRBC) / (DMSO-uRBC) x100", "setting": "conc. 3.04832 nM, Biological replicate 3 (2021-11-11)", "result": 132.053}, {"measurement": "(av-uRBC) / (DMSO-uRBC) x100", "setting": "conc. 9.14495 nM, Biological replicate 1 (2021-10-25)", "result": 108.232}, {"measurement": "(av-uRBC) / (DMSO-uRBC) x100", "setting": "conc. 9.14495 nM, Biological replicate 2 (2021-11-03)", "result": 108.229}, {"measurement": "(av-uRBC) / (DMSO-uRBC) x100", "setting": "conc. 9.14495 nM, Biological replicate 3 (2021-11-11)", "result": 134.103}, {"measurement": "(av-uRBC) / (DMSO-uRBC) x100", "setting": "conc. 27.4348 nM, Biological replicate 1 (2021-10-25)", "result": 109.088}, {"measurement": "(av-uRBC) / (DMSO-uRBC) x100", "setting": "conc. 27.4348 nM, Biological replicate 2 (2021-11-03)", "result": 108.743}, {"measurement": "(av-uRBC) / (DMSO-uRBC) x100", "setting": "conc. 27.4348 nM, Biological replicate 3 (2021-11-11)", "result": 131.145}, {"measurement": "(av-uRBC) / (DMSO-uRBC) x100", "setting": "conc. 82.3045 nM, Biological replicate 1 (2021-10-25)", "result": 105.921}, {"measurement": "(av-uRBC) / (DMSO-uRBC) x100", "setting": "conc. 82.3045 nM, Biological replicate 2 (2021-11-03)", "result": 106.368}, {"measurement": "(av-uRBC) / (DMSO-uRBC) x100", "setting": "conc. 82.3045 nM, Biological replicate 3 (2021-11-11)", "result": 120.919}, {"measurement": "(av-uRBC) / (DMSO-uRBC) x100", "setting": "conc. 246.914 nM, Biological replicate 1 (2021-10-25)", "result": 104.521}, {"measurement": "(av-uRBC) / (DMSO-uRBC) x100", "setting": "conc. 246.914 nM, Biological replicate 2 (2021-11-03)", "result": 107.825}, {"measurement": "(av-uRBC) / (DMSO-uRBC) x100", "setting": "conc. 246.914 nM, Biological replicate 3 (2021-11-11)", "result": 115.806}, {"measurement": "(av-uRBC) / (DMSO-uRBC) x100", "setting": "conc. 740.741 nM, Biological replicate 1 (2021-10-25)", "result": 96.6483}, {"measurement": "(av-uRBC) / (DMSO-uRBC) x100", "setting": "conc. 740.741 nM, Biological replicate 2 (2021-11-03)", "result": 106.073}, {"measurement": "(av-uRBC) / (DMSO-uRBC) x100", "setting": "conc. 740.741 nM, Biological replicate 3 (2021-11-11)", "result": 111.809}, {"measurement": "(av-uRBC) / (DMSO-uRBC) x100", "setting": "conc. 2222.22 nM, Biological replicate 1 (2021-10-25)", "result": 83.9595}, {"measurement": "(av-uRBC) / (DMSO-uRBC) x100", "setting": "conc. 2222.22 nM, Biological replicate 2 (2021-11-03)", "result": 95.9821}, {"measurement": "(av-uRBC) / (DMSO-uRBC) x100", "setting": "conc. 2222.22 nM, Biological replicate 3 (2021-11-11)", "result": 68.0249}, {"measurement": "(av-uRBC) / (DMSO-uRBC) x100", "setting": "conc. 6666.67 nM, Biological replicate 1 (2021-10-25)", "result": 42.8085}, {"measurement": "(av-uRBC) / (DMSO-uRBC) x100", "setting": "conc. 6666.67 nM, Biological replicate 2 (2021-11-03)", "result": 58.8022}, {"measurement": "(av-uRBC) / (DMSO-uRBC) x100", "setting": "conc. 6666.67 nM, Biological replicate 3 (2021-11-11)", "result": 17.0257}, {"measurement": "(av-uRBC) / (DMSO-uRBC) x100", "setting": "conc. 20000 nM, Biological replicate 1 (2021-10-25)", "result": 9.309}, {"measurement": "(av-uRBC) / (DMSO-uRBC) x100", "setting": "conc. 20000 nM, Biological replicate 2 (2021-11-03)", "result": 11.2449}, {"measurement": "(av-uRBC) / (DMSO-uRBC) x100", "setting": "conc. 20000 nM, Biological replicate 3 (2021-11-11)", "result": 4.179}, {"measurement": "Normalised to DMSO", "setting": "PopD-D7 replicate 1, M-833 0.0390625 uM", "result": 0.8625}, {"measurement": "Normalised to DMSO", "setting": "PopD-D7 replicate 1, M-833 0.078125 uM", "result": -4.169}, {"measurement": "Normalised to DMSO", "setting": "PopD-D7 replicate 1, M-833 0.15625 uM", "result": -1.581}, {"measurement": "Normalised to DMSO", "setting": "PopD-D7 replicate 1, M-833 0.3125 uM", "result": -1.15}, {"measurement": "Normalised to DMSO", "setting": "PopD-D7 replicate 1, M-833 0.625 uM", "result": -0.1437}, {"measurement": "Normalised to DMSO", "setting": "PopD-D7 replicate 1, M-833 1.25 uM", "result": -3.594}, {"measurement": "Normalised to DMSO", "setting": "PopD-D7 replicate 1, M-833 2.5 uM", "result": 7.619}, {"measurement": "Normalised to DMSO", "setting": "PopD-D7 replicate 1, M-833 5 uM", "result": 28.7494}, {"measurement": "Fold change compared to 3D7", "setting": "Supplementary Table 1, EC50 on PopD-D7 vs 3D7", "result": 31, "unit": "fold"}]}
